Measurements as given in a melting point compilation (Tetko et al.; mined from patent text by program, amines drawn as free bases though some values may be those of a salt).

| Compound | melting point [°C] |
| --- | --- |
| S=C(NCCC1=CCCCC1)Nc1nc2ccccc2[nH]1 | 178 to 180 |
| CCC(O)(c1ccc(O)cc1)c1ccc(Br)cc1 (stereo not given) | 161 to 162 |
| N#Cc1ncc(Cl)cc1F | 72 to 73 |
| COC(=O)c1nc(Cl)cc(Cl)c1N | 127 to 128 |
| CN1CCOc2cc(N)ccc2C1=O | 169 to 170 |
| COc1cc(Br)c2oc(-c3ccc(OC)c(C(F)(F)F)c3)nc2c1 | 183 to 185 |
| O=C(Nc1ccc(O)cc1)c1c[nH]c2c1C(=O)CCCC2 | 178 to 179 |
| O=c1[nH]c2scc(-c3ccccc3)c2[nH]c1=O | > 300 |
| CCOC(=O)c1c[nH]c2cc(OC)c(OC)cc2c1=O | 275 to 285 |
| COc1ccc(NC2=NN(c3cccc(C(F)(F)F)c3)CC2)cc1 | 127 to 128 |
| COc1ccc(-c2cnc3[nH]cc(C(=O)C(C)(C)C)c3n2)cc1 | 207 to 208 |
| C[Si]1(C)CC[Si](C)(C)N1c1ccc(Br)cn1 | 50.4 to 55.8 |
| Cn1ccc2c(-n3cc(C(=O)O)c4cccnc43)ncnc21 | > 260 |
| COc1cc(C(=O)N2CCC(N3CCC(Oc4ccc(F)c(F)c4)CC3)C2)ccc1N (stereo not given) | 138 to 139 |
| CC1=C(C#Cc2ccccc2/C=C/C(C)=C/C(=O)O)C(C)(C)CCC1 | 194 to 196 |
| C=C(C)[C@H]1CC[C@@](C)(O)[C@H](N[C@@H](C)C2CCCCC2)C1 | 63 to 64 |
| CC(=O)NCc1ccc2c(c1)N(C1CCN(CCc3ccc(F)cc3)CC1)CC2(C)C | 131 to 133 |
| CN1C(=O)CC[C@]2(C)c3ccc(-c4ccc([N+](=O)[O-])cc4C(F)(F)F)cc3CC[C@@H]12 | 128 to 130 |

| Compound | melting point [°C] |
| --- | --- |
| CCCCCCCCCCCCCCCC(=O)C(O)(O)C(=O)OC(C)(C)C | 49 to 51 |
| COc1ccc(C2CCN(C(=O)C(=O)NO)CC2)cc1C=C1CCCCCC1 | 135 to 136 |
| C=CCOc1ccc(S(=O)(=O)c2ccc(OCC=C)cc2)cc1 | 140 to 142 |
| O=[N+]([O-])c1cccc(-c2ccnc3ccnn23)c1 | 204 to 206 |
| Cc1cc(C#N)cc(CNc2c(NC(C)C(C)(C)C)c(=O)c2=O)c1 (stereo not given) | 244 to 247 |
| CC(C)CNc1c(N)c2nnnn2c2cnccc12 | 203 to 204 |
| c1ccc2c(c1)CCN(Cc1n[nH]c3c1CCc1ccccc1-3)C2 | 180 to 182 |
| Nc1nc(O)c2c(CCCc3ccc(C(=O)N[C@@H](CCC(=O)O)C(=O)O)cc3)cnc-2[nH]1 | 190 to 193 |
| CCOc1cc(OCc2ccccc2OCc2nc(-c3ccccc3)oc2C)ccc1CCC(=O)O | 112 to 113 |
| CCCCCCCNC(=O)Nc1ccccc1C(=O)NC1CCN(CCSc2nc(-c3ccccc3)c(-c3ccccc3)[nH]2)CC1 | 160 to 161 |
| CCOC(=O)CCn1c(CC(=O)OCC)nc2c(N3CCCCC3)cccc21 | 82 to 85 |
| CNC(=O)Oc1ccc(NC(=O)C(C)Cl)c(C)c1 (stereo not given) | 167 to 170 |
| COC(=O)C(Cc1ccc(Cl)cc1Cl)=NO | 97 to 100 |
| Cc1nc(C)c(-c2ccnc(Nc3cccnc3)n2)s1 | 159 to 162 |
| O=C(CN1CCCC1)NCc1ccc2c(c1)-c1[nH]nc(-c3ccsc3)c1C2 | 201 to 204 |
| CCNCCC(=O)Nc1ccc2c(c1)C(=O)c1cc(NC(=O)CCNCC)ccc1C2=O | 181 |
| c1ccc(CCc2n[nH]c(NCCCCOc3cccc(CN4CCCCC4)c3)n2)cc1 | 146 to 147 |

Continued, values first:

| melting point [°C] | Compound |
| --- | --- |
| 64 to 68 | OC(CNCCCOCCCCCCc1ccccc1)c1ccc2c(n1)COC(c1ccccc1)O2 (stereo not given) |
| 224 to 225 | NC(N)=NC(=O)Cn1c(Cl)ccc1Cl |
| 40 | CCCSN(C)C(=O)Nc1ccc(Cl)c(Cl)c1 |
| 137 to 138 | CC(C)n1nc(OCc2ccc3ccccc3n2)cc1CO |
| 110 to 130 | CC(=O)OC(OC(C)=O)c1cccc(C(OC(C)=O)OC(C)=O)c1 |
| 173 to 175 | CCOC(=O)C1Cc2cc(Cl)ccc2NC1=O (stereo not given) |
| 195 to 197 | CCOC(=O)c1cc(CBr)ccc1S(=O)(=O)NC(=O)Nc1nc(OC)cc(OC)n1 |
| 100 to 101 | Cn1nc(C(F)(F)F)cc1N |
| 103 to 107 | Clc1ccccc1-c1cc(-c2ccccc2)c(-c2ccccc2)s1 |
| 169 to 170 | N#Cc1cc(S(=O)c2ccccc2)[nH]c1-c1ccc(Cl)cc1 (stereo not given) |
| 297 to 299 | CCc1c(C2=NN=C(C)Cc3cc4[nH]c(=O)oc4cc32)sc2cccc(F)c12 |
| 159 to 161 | Cn1cc(C(=O)c2ccc(F)cc2)cc1C(=O)c1ccccn1 |
| 165 to 167 | O=C(CCc1ccc2cccc(O)c2n1)NO |
| 120 | CNC(=O)NCc1cncn1C1c2ccccc2CCC1(C)C (stereo not given) |
| 101 to 102 | c1ccc(CNc2nccc3ccccc23)cc1 |
| 132 | Cc1cnc(CCCC#N)c(O)c1 |
| 99.5 to 102 | CCOC(=O)c1cn(NCC(=O)OC(C)(C)C)c2c(F)c(F)c(F)cc2c1=O |
| 210 to 213 | CC(=O)N[C@H]1CC[C@H](ON2C(=O)c3ccccc3C2=O)CC1 |
| 134 to 136 | CC(C)Cc1cc2nnc(-c3ccccc3F)n2nc1OCc1ncnn1C |
| 114 to 116 | N#Cc1c(N2CCCCC2)cc(-c2ccc3ccc4cccc5ccc2c3c45)c2c1-c1ccccc1C2 |

| melting point [°C] | Compound |
| --- | --- |
| 289 to 292 | CC1(N2Cc3c(N)cccc3C2=O)CCC(=O)NC1=O (stereo not given) |
| 105 to 106 | CN(Cc1cc(C(F)(F)F)cc(C(F)(F)F)c1)C(=O)c1cnc2ccc(Cl)cc2c1-c1ccccc1 |
| 156 | Nc1ccc2oc(-c3ccccc3)cc2c1 |
| 101 | CC1(C)C(C#CC(=O)OCC(Cl)(Cl)Cl)C1C(=O)OC(C#N)c1cccc(Oc2ccccc2)c1 (stereo not given) |
| 161 to 162 | CCOC(=O)Cc1csc(-c2cc3cccc(NS(=O)(=O)c4cccs4)c3[nH]2)n1 |
| 188 to 190 | CCS(=O)(=O)Cc1cccc(-c2nc(=O)c3ccccc3s2)n1 |
| 140 | CCCCOCCOc1ccc(-c2ccc(N(C)Cc3cnn(C)c3)c(C=C(C)C(=O)O)c2)cc1 |
| 74 to 76 | COc1ccc2c(c1)Sc1ccc(F)cc1C(O)C2 (stereo not given) |
| 147 to 149 | CCC1C=C2NC(=O)CC[C@]2(C)[C@H]2CC[C@]3(C)[C@@H]([C@H](C)CCCC(C)C)CC[C@H]3[C@H]12 (stereo not given in full) |
| 215 to 217 | CC1CCCC(NC(CCc2ccccc2)C(=O)O)C(=O)N1CC(=O)O (stereo not given) |
| 133 to 135 | CC(C)Nc1nc2ccccc2n2cnnc12 |
| 242 to 245 | Cc1c(Br)c(O)c(Br)c(C)c1-c1c(C)c(Br)c(O)c(Br)c1C |
| 38 to 40 | N#Cc1ccc(OCc2ccsc2)cc1OC(C(=O)O)c1ccccc1C(F)(F)F (racemic) |
| 163 to 165 | COc1cc(NOC(C)=O)cc(OC)c1 |
| 214 to 216 | c1ccc(-c2ncc(-c3csc(-c4ccccc4)n3)cn2)cc1 |
| 121 to 123 | CCC1SC(c2ccncc2)=C(C)NC1=O (stereo not given) |
| 91 to 92 | Cc1cc(COc2nn(Cc3ccccc3)cc2CO)ccc1OCc1nc(-c2ccco2)oc1C |
| 80 to 84 | CCCN1Cc2c(Cl)nc(Cl)nc2N1 |
| 194 to 195 | CC(C)(C)COc1ccc(NC(=O)c2cc3ccccc3n2CC(=O)O)cc1C#N |
| 118 to 120 | O=C1CN(c2ccc(F)cc2)CCN1 |
